According to PubChem BioAssay AID2305 (GlaxoSmithKline (GSK), 2010):

These molecules were tested on P. falciparum 3D7 growth, pLDH absorbance (assay: blood-stage malaria parasite growth potency – strain 3D7, dose response (AID 2305)).

Compound | IC50 [µM]
c1ccc(CCNc2ncnc3c2[nH]c2ccccc23)cc1 | 0.6
O=C(/C=C/c1ccc(Cl)c(Cl)c1)NCCCCCN1CCC(CCNC(=O)C2(c3ccc(Cl)cc3)CC2)CC1 | 0.92
c1cc(Nc2nccc(-c3cnn4ncccc34)n2)cc(-c2cnco2)c1 | 0.69
O=C(N[C@@H](CC1CCCCC1)C(=O)NCCN1CCCC1)c1ccc(O)c(-c2ccc(Cl)c(Cl)c2)c1 | 0.31
COc1ccc2nc(C)cc(NN=Cc3cc(C)ccc3O)c2c1 | 0.14
Cc1cccc(Nc2nc(N)c3ccccc3n2)c1 | 0.57
Cc1ccccc1C1CCN(C2CCC(NC(=O)c3cc4cc(Cl)ccc4o3)CC2)CC1 (stereo unspecified) | 1.2
CN=C(NC)c1cccc(NC(=O)C=Cc2ccc(C=CC(=O)Nc3cccc(C(=NC)NC)c3)cc2)c1 | 0.16
COc1ccc2c(NN=Cc3cccc([N+](=O)[O-])c3)ccnc2c1 | 0.85
O=C(Nc1cccc(CN2CCCN(Cc3ccc(O)cc3)CC2)c1)c1cc2ccccc2s1 | 0.36
COc1ccc2nccc([C@@H](O)CN3CCC(NCc4cc5c(cc4F)SCC(=O)N5)CC3)c2n1 | 1
CN1CCC(N2CCC(Oc3cccc(C(=O)NCCCC4CCCC4)c3)CC2)CC1 | 0.84
CCCCCSc1cc(O)c(C(CNC)C(C)C)cc1OC (stereo unspecified) | 0.16
COCCN1CCC(C(=O)NCC(C)(C)c2nc(-c3ccc(Br)c(O)c3)c(-c3ccncc3)[nH]2)CC1 | 0.91
CCCNC(=O)c1cncc(-c2ccc(CNC(CC)c3ccccc3)cc2)c1 (stereo unspecified) | 0.88
O=C(c1cnn(-c2ccccc2)c1C(F)(F)F)N1CCN(c2ccnc3cc(Cl)ccc23)CC1 | 0.53
O=C(NCc1ccc(Cl)c(Cl)c1)c1ccc(-c2nc3ccc(F)cc3[nH]2)cc1 | 1.03
O=C(Nc1ccc(OC2CCN(Cc3ccccc3)C2)c(Cl)c1)c1ccc(F)cc1 (stereo unspecified) | 0.79
CCCCCCCc1ccc(-c2c(C)[nH]c(C)c(Cl)c2=O)cn1 | 0.36
CS(=O)(=O)NCCCNCc1cccc(-c2csc(-c3nc4ccccc4[nH]3)c2)c1 | 1.01
CCN1CCC(N(Cc2ccc(-c3ccc(C(F)(F)F)cc3)cc2)C(=O)Cn2c(CCc3cccc(F)c3F)cc(=O)c3ccccc32)C1 (stereo unspecified) | 1.01
COc1ccc(NC(=O)c2csc(-c3cc(NC(=O)c4ccnc(N5CCCC5)c4)ccc3C)c2)cc1N1CCN(C)CC1 | 0.66
COc1ccccc1C1CCN(C2CCC(NC(=O)/C=C/c3cc(C(F)(F)F)cc(C(F)(F)F)c3)CC2)CC1 (stereo unspecified) | 1.2
Cc1cc([N+](=O)[O-])ccc1NC(=O)Nc1cccc(C(F)(F)F)c1 | 0.72
CCc1nonc1NC(=O)c1oc2c(C)c(C)ccc2c1C | 0.88
Cc1ccc(NC(=O)c2ccc3ncccc3c2)cc1OC1CCN(CCC(C)C)CC1 | 0.69

Compound | IC50 [µM]
COc1cccc2c(NN=Cc3ccccc3[N+](=O)[O-])cc(C)nc12 | 0.42
Oc1ccc(Br)cc1C(O)CNCc1ccccc1OCc1ccccc1 (stereo unspecified) | 0.17
CCN(CCCN1CCCCC1)c1cc(C)nc(Nc2cc(Cl)ccc2C)n1 | 0.63
COc1ccc2nccc(N3CCC(SCCNCc4cc5c(cn4)OCCO5)C3)c2n1 (stereo unspecified) | 0.77
CN(C)c1ccc(-c2ccc(C(=O)NC3CCN(Cc4ccccc4)CC3)s2)cc1 | 1.05
Cc1ccc2sc(N(CCCn3ccnc3)C(=O)c3ccco3)nc2c1C | 0.97
CCCCN(CCCC)CCCCCCNc1c2ccccc2nc2ccccc12 | 0.78
CCCCCCCc1cc(=O)c2ccccc2[nH]1 | 0.32
CC(C)Nc1cc(C(=O)N[C@@H](Cc2ccccc2)[C@H](O)CNC(C)(C)c2cccc(C(F)(F)F)c2)cc(N2CCCCS2(=O)=O)c1 | 0.08
CN(C)CC(=O)NCC(NCCCNc1cc(=O)c2ccccc2[nH]1)c1cc(Br)cc(Br)c1 (stereo unspecified) | 1.05
CN1CC=C(c2c[nH]c3ccc(-c4ccccc4)cc23)CC1 | 0.77
COc1ccc2c(c1)CC1CN(CCCCNC(=O)c3ccc(NC(=O)c4cc(Cl)cc(Cl)c4)cc3)CCN1C2 (stereo unspecified) | 0.77
COc1cccc(-c2ccc3ccnc(N)c3c2)c1 | 0.41
Nc1cc(C(F)(F)F)ccc1Cl | 0.74
CCOc1ccc(C(=O)Nc2cc(Br)c3c(c2)CNCC3)cc1Br | 0.99
COc1ccc(-c2ccc(CNCc3ccccc3)cc2)cc1S(=O)(=O)NCCN1CCCC1 | 0.73
COc1cc(Nc2nccn3c(-c4ccsc4)cnc23)cc(OC)c1OC | 0.89
CCCCCCC(N)c1ccc(OCCCOc2ccc(C(N)CCCCCC)cc2)cc1 (stereo unspecified) | 1.14
N#Cc1cccc(-c2cnc(N)c(-c3nc4ccc(S(N)(=O)=O)cc4[nH]3)c2)c1 | 0.64
O=C(Nc1ccc2c(c1)CCN(C1CCC1)CC2)c1ccc(-n2ccnc2)cn1 | 0.37
NC(=O)c1cc2nc(Nc3ccc(F)cc3)nc(Nc3ccc(S(N)(=O)=O)cc3)c2[nH]1 | 0.8
CCn1c(-c2nonc2N)nc2c(-c3cccc(NC(=O)Nc4cccc(Cl)c4)c3)ncc(OCCCN)c21 | 0.94
COc1ccc(NC(=O)[C@H](CC(C)C)Nc2cc(C)nc(NCCOc3ccccc3)n2)cc1 | 0.8
COc1ccc2nccc([C@@H](O)CN3CCC(NCc4nc5c(OCc6ccccc6)cccc5[nH]4)CC3)c2c1 | 0.18
Cc1cc(NN=Cc2ccccc2F)c2cccc(C)c2n1 | 0.76
